According to publication PMC6271245, “Discovery of Gramine Derivatives That Inhibit the Early Stage of EV71 Replication in Vitro” (Molecules, 2014):

Experiments:
EV71 RNA = assay: Viral RNA synthesis by quantitative RT-PCR in RD cells; assay type: cell-based, Enterovirus 71; details: 40 µg/mL
Description: To further analyze the effect of 4s on EV71 replication in RD cells, the efficacy of 4s in inhibiting viral RNA synthesis was analyzed by quantitative reverse transcription polymerase chain reaction (RT-PCR). The infected cells treated with or without 40 µg/mL 4s were harvested at 4, 8, 24 and 36 h pi to examine the relative amount of viral RNA. The fold difference of RNA for all the samples was calculated relative to the RNA level in the EV71-infected cells (virus control) at 4 h pi.
(§1) Figure 4 The effect of 4s on EV71 replication in RD cells. RD cells infected with 100 TCID50 of EV71 were incubated in the absence (virus control) or presence of 40 µg/mL 4s and harvested at the indicated times pi. (A) Total RNA was extracted from cells and culture supernatants and EV71 RNA levels were measured. Cellular actin amplification was used for normalization. The ΔΔCt data were calculated from three independent experiments; (B) EV71-protein was determined by indirect immunofluorescence using a mouse anti-enterovirus 71 monoclonal antibody and an Alexa-Fluor-488-conjugated AffiniPure goat anti-mouse IgG (H + L). The nucleus was stained with DAPI; the green foci indicate the presence of EV71 protein.
The EV71 RNA was extracted from infected cells and culture supernatants with TRIzol (Gibco-Invitrogen, Carlsbad, CA, USA) and reverse-transcribed using a PrimeScript RT reagent kit (TaKaRa, Dalian, China) according to the manufacturer’s instructions. The products of reverse transcription were quantified with the SYBR Premix Ex Taq II (perfect real time) kit (TaKaRa) and detected with a Step One Plus sequence detection system (Applied Biosystems, Foster City, CA, USA). Expression of actin was used as an internal standard. The special primer sequences were: EV71-VP1-F: 5'-[…]-3', EV71-VP1-R: 5'-GTCTCAATCATGCTCTC GTCACT-3'; Actin-F: 5'-[…]-3', Actin-R: 5'-AGGGGCCGGACTCGT CATACT-3'.

EV71 protein = assay: Viral protein by indirect immunofluorescence in RD cells; assay type: cell-based, Enterovirus 71; details: 40 µg/mL post-infection, RD cells, 4, 8 or 24 h
Description: as §1
The influence of 4s on the replication of EV71 was also determined at the translational level. The RD cells grown in 24 coverslips were infected with EV71 and treated with 40 µg/mL 4s post-infection, intracellular viral protein was detected by indirect immunofluorescence analysis after incubation for 4, 8 or 24 h. […]

EV71-infected RD cells = assay: EV71-induced apoptosis, Annexin-V/propidium iodide flow cytometry; assay type: cell-based, Human; details: 40 µg/mL, 100 TCID50 EV71, 36–48 h
Description: EV71 adsorption, internalization, entry, uncoating, and viral RNA replication are […] to trigger infected cell apoptosis, but it is required for viral protein synthesis. Flow cytometry was performed to investigate the effect of 4s on virus-induced cell apoptosis. In the assays, EV71-infected cells were stained with Annexin-V-fluorescein and propidium iodide; fluorescence drifting indicates cells undergoing apoptosis.
Figure 5 Inhibition effect of 4s on EV71-induced apoptosis. RD cells were (A) left untreated or (B) infected with 100 TCID50 of EV71. After viral adsorption, RD cells were incubated in the (B) absence or (C) presence of 40 µg/mL 4s for 36–48 h; (D) The cells were stained with Annexin-V- fluorescein and propidium iodide and measured using flow cytometry. TEXT PRINTED IN THE PICTURE: (C) Virus + 4s: Q1 3.21%; Q2 4.06%; Q4 89.2%; Q3 3.55% DOUBTS OF THE COPYIST ABOUT THIS PICTURE: Panels A (Mock) and B (Virus control) also print quadrant percentages (A: 0.548%, 1.84%, 93.9%, 3.75%; B: 1.32%, 40.1%, 23.7%, 34.9%). I left them out because they are controls without a substance.
For the apoptosis assay, RD cells in 6-well plates infected with 100 TCID50 of EV71 were left untreated or treated with 40 µg/mL 4s for 36–48 h, until the CPEs of virus control cells reached 70%–80%. […]

For `c1ccc(C(Nc2nc3ccccc3s2)c2c[nH]c3ccccc23)nc1` (stereo not drawn) [Compound 4s], the “fold reduction of viral RNA copy number vs virus control” value (“fold reduction of viral RNA copy number” below) (EV71 RNA; 4 h pi) was 1.8 fold, the “fold reduction of viral RNA copy number” value (EV71 RNA; 8 h pi) was 9.0 fold and the “fold reduction of viral RNA copy number” value (EV71 RNA; 24 h pi) was 79.8 fold. The “fold reduction of viral RNA copy number” value (EV71 RNA; 36 h pi) was 174.7 fold, the “viral protein synthesis (immunofluorescent foci)” value (EV71 protein) was “suppressed” and the “EV71-induced apoptosis (fluorescence drifting)” value (EV71-infected RD cells) was “fluorescence drifting could hardly be observed”.
